Literature values in patent US20070021352A1, “PREVENTION AND TREATMENT OF HEARING DISORDERS” (Cypress Bioscience, Inc., priority 2005, published 2007).

Tests used:
[1] = normal, healthy volunteers; daily ingestion of 6.7 mmol; rifle noise six days per week for eight weeks; vs placebo (sodium aspartate)
[2] = elderly patients; preliminary results
[3] = humans; daily ingestion of 122 mg for 10 days
cochlea = details: guinea pig model; local administration

## N[C@@H](CC(=O)[O-])C(=O)[O-].[Mg+2] [magnesium aspartate]
[1]
  permanent threshold shift: significant effect on permanent threshold shift

## CN(C)CCCC1(c2ccc(F)cc2)OCc2cc(C#N)ccc21 (stereo not shown) [citalopram, 1-[3-(dimethylamino)propyl]-1-(4-fluorophenyl)-1,3-dihydro-5-isobenzofurancarbonitrile]
[2]
  impact on auditory processes: positive impact on auditory processes in the elderly

## [Mg] [magnesium]
[3]
  noise-induced temporary threshold shift: protect against noise-induced temporary threshold shift

## CCN(CC)CCn1c(=O)c(Cc2ccc(OC)cc2)nc2ccccc21 [caroverine, 1-[2-(diethylamino)ethyl]-3-[(4-methoxyphenyl)methyl]-2-(1H)-quinoxalinone]
cochlea
  protection of cochlea from noise trauma: protection of cochlea from noise trauma
